Patent US8822468B2 (Novartis AG, priority 2008, dated 2014)

Target: T1, cMET receptor tyrosine kinase (GST-cMET (969-1390)) (Homo sapiens, UniProt P08581)
T1 construct: made in house
Assay: EPK cMET profiling assay (LanthaScreen TR-FRET antibody based kinase phosphorylation assay)
Format: biochemical
Settings: purified recombinant GST-cMET (969-1390), 2 μM ATP, 50 nM Fluorescein-PolyEAY, 60 minutes at room temperature; read-out: c-Met IC50
Description: A number of compounds of the present invention were assayed in an antibody based kinase phosphorylation assay as follows.
EPK cMET Profiling Assay:
The EPK kinase assay for cMET receptor tyrosine kinase was developed, using the purified recombinant GST-fusion protein, containing the cytoplasmic domain of the enzyme. GST-cMET (969-1390) was purified by affinity chromatography.
The kinase assay is based on the LanthaScreen™ technology. LanthaScreen™ is the detection of Time-Resolved Fluorescence Resonance Energy Transfer (TR-FRET) using lanthanide chelates to measure interactions between various binding partners. In a TR-FRET kinase assay, a long-lifetime lanthanide donor species is conjugated to an antibody that specifically binds to a phosphorylated product of a kinase reaction that is labeled with a suitable acceptor fluorophore. This antibody-mediated interaction brings the lanthanide donor and the acceptor into proximity such that resonance energy transfer can take place, resulting in a detectible increase in the FRET signal.
The kinase reactions were performed in 384 well microtiter plates in a total reaction volume of 9.05 μL. The assay plates were prepared with 0.05 μL per well of test compound in the appropriate test concentration, as described under “preparation of compound dilutions”. The reactions were started by combining 4.5 μL of ATP solution with 4.5 μL of enzyme-substrate mix (consisting of kinase and substrate). The final concentrations in the kinase reactions were 35 mM Tris/HCl, 1 mM DTT, 0.025% Tween20, 10 μM sodium orthovanadate, 0.25% BSA, 0.6% DMSO, 10 mM MgCl2, 3 mM MnCl2, 2 μM ATP, 50 nM Fluorescein-PolyEAY, and 0.3 nM enzyme.
The reactions were incubated for 60 minutes at room temperature and stopped by adding 4.5 μL of stop buffer (50 mM EDTA, 0.04% NP40, 20 mM Tris/HCl).
Subsequently 4.5 μL of detection mix (50 mM Tris/HCl, 2 mM DTT, 0.05% Tween20, 20 μM sodium orthovanadate, 1% BSA, 1.72 μg/ml Tb-PY20 antibody) were added to the stopped reactions. After 30 minutes incubation at room temperature, the plates were measured in a BMG Pherastar fluorescence reader. The effect of compound on the enzymatic activity was in all assays obtained from the linear progress curves and determined from one reading (end point measurement).
Test compounds were dissolved in DMSO (10 mM) and transferred into 1.4 mL flat bottom or V-shaped Matrix tubes carrying a unique 2D matrix. The stock solutions were stored at −20° C. if not used immediately. For the test procedure the vials were defrosted and identified by a scanner whereby a working sheet was generated that guided the subsequent working steps.
Compound dilutions were made in 96 well plates. This format enabled the assay of maximally 40 individual test compounds at 8 concentrations (single points) including 4 reference compounds. The dilution protocol included the production of “pre-dilution plates”, “master plates” and “assay plates”.
Pre-dilution plates: 96 polypropylene well plates were used as pre-dilution plates. A total of 4 pre-dilution plates were prepared including 10 test compounds each on the plate positions A1-A10, one standard compound at A11 and one DMSO control at A12. All dilution steps were done on a HamiltonSTAR robot.
Master plates: 100 μL of individual compound dilutions including standard compound and controls of the 4 “pre-dilution plates” were transferred into a 384 “master plate” including the following concentrations 1,820, […], 182, 54.6, 18.2, 5.46, 1.82 and 0.546 μM, respectively in 90% of DMSO.
Assay plates: Identical “assay plates” were then prepared by pipetting 50 nL each of compound dilutions of the “master plates” into 384-well “assay plates” by means of a HummingBird 384-channel dispenser. These plates were used directly for the assay which was performed in a total volume of 9.05 μL. This led to a final compound concentration of 10, 3.0, 1.0, 0.3, 0.1, 0.03, 0.01 and 0.003 μM and a final DMSO concentration of 0.5% in the assay.

T1 sequence (P08581 969-1390): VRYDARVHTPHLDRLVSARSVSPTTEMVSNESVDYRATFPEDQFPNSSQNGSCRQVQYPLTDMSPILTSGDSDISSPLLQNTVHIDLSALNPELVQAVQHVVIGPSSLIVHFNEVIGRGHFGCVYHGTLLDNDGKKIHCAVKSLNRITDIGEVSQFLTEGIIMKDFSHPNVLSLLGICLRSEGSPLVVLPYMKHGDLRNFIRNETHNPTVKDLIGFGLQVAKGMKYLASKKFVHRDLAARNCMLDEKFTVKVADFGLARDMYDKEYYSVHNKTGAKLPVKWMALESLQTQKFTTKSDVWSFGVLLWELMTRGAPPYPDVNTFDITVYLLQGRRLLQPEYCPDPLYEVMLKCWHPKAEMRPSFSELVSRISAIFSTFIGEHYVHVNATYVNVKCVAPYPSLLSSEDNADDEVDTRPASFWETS

Row | SMILES | IC50 [nM]
1 | CNC(=O)c1ccc(-c2ccc3ncc(Cc4ccc5ncccc5c4)n3n2)cc1F [Example 70, 2-Fluoro-N-methyl-4-(3-quinolin-6-ylmethyl-imidazo[1,2-b]pyridazin-6-yl)-benzamide] | 62
2 | [2H]C([2H])(c1ccc2ncccc2c1)c1cnc2ccc(Cl)nn12 [Example 142, 6-[(6-Chloro-imidazo[1,2-b]pyridazin-3-yl)-dideutero-methyl]-quinoline] | 210
3 | FC(F)(F)c1cccc(-c2ccc3ncc(Cc4ccc5ncccc5c4)n3n2)c1 [Example 18, 6-[6-(3-Trifluoromethyl-phenyl)-imidazo[1,2-b]pyridazin-3-ylmethyl]-quinoline] | 65.5
4 | [2H]C([2H])(c1ccc2ncccc2c1)c1cnc2ccc(-c3cnn(C)c3)nn12 [Example 143, 6{Dideutero-[6-(1-methyl-1H-pyrazol-4-yl)-imidazo[1,2-b]pyridazin-3-ylmethyl]}-quinoline] | 44
5 | Cn1cc(-c2ccc3ncc(Cc4cn5ccnc5cc4F)n3n2)cn1 [Example 205, 3-(7-Fluoro-imidazo[1,2-a]pyridin-6-ylmethyl)-6-(1-methyl-1H-pyrazol-4-yl)-imidazo[1,2-b]pyridazine] | 47
6 | F[C@@H]1CCN(c2ccc3ncc(Cc4ccc5ncccc5c4)n3n2)C1 [Example 124, 6-[6-((R)-3-fluoro-pyrrolidin-1-yl)-imidazo[1,2-b]pyridazin-3-ylmethyl]-quinoline] | 180
7 | Fc1ccc(-c2ccc3ncc(Cc4ccc5ncccc5c4)n3n2)cc1Cl [Example 68, 6-[6-(3-Chloro-4-fluoro-phenyl)-imidazo[1,2-b]pyridazin-3-ylmethyl]-quinoline] | 480
8 | Fc1cc2ncccc2cc1Cc1cnc2ccc(-c3cnn(C4CCN(CC(F)(F)F)CC4)c3)nn12 [Example 149, 7-Fluoro-6-(6-{1-[1-(2,2,2-trifluoro-ethyl)-piperidin-4-yl]-1H-pyrazol-4-yl}-imidazo[1,2-b]pyridazin-3-ylmethyl)-quinoline] | 31
9 | CC(c1ccc2nccn2c1)c1cnc2ccc(-c3cnn(C)c3)nn12 (racemic) [Example 293, (rac)-3-(1-Imidazo[1,2-a]pyridin-6-yl-ethyl)-6-(1-methyl-1H-pyrazol-4-yl)-imidazo[1,2-b]pyridazine] | 23
10 | CNC1CCN(c2ccc3ncc(Cc4cc5cccnc5cc4F)n3n2)C1 (racemic) [Example 260, (rac)-{1-[3-(7-fluoro-quinolin-6-ylmethyl)-imidazo[1,2-b]pyridazin-6-yl]-pyrrolidin-3-yl}-methylamine] | 5.2
11 | c1cnc2ccc(Cc3cnc4ccc(NC5CCCC5)nn34)cc2c1 [Example 81, Cyclopentyl-(3-quinolin-6-ylmethyl-imidazo[1,2-b]pyridazin-6-yl)-amine] | 76
12 | c1cncc(-c2ccc3ncc(Cc4ccc5ncccc5c4)n3n2)c1 [Example 29, 6-(6-Pyridin-3-yl-imidazo[1,2-b]pyridazin-3-ylmethyl)-quinoline] | 40
13 | Cn1cc(-c2ccc3ncc(Cc4ccc(O)cc4F)n3n2)cn1 [Example 202, 3-Fluoro-4-[6-(1-methyl-1H-pyrazol-4-yl)-imidazo[1,2-b]pyridazin-3-ylmethyl]-phenol] | 68
14 | CCn1nccc1Nc1ccc2ncc(Cc3ccc4ncccc4c3)n2n1 [Example 132, (2-Ethyl-2H-pyrazol-3-yl)-(3-quinolin-6-ylmethyl-imidazo[1,2-b]pyridazin-6-yl)-amine] | 50
15 | CCOc1ccc2ncc(Cc3ccc4ncccc4c3)n2n1 [Example 123, 6-(6-ethoxy-imidazo[1,2-b]pyridazin-3-ylmethyl)-quinoline] | 87
16 | CNC1CCN(c2ccc3ncc(Cc4ccc5ncccc5c4)n3n2)C1 (racemic) [Example 119, (rac)-Methyl-[1-(3-quinolin-6-ylmethyl-imidazo[1,2-b]pyridazin-6-yl)-pyrrolidin-3-yl]-amine] | 42
17 | c1ccc(-c2ccc3ncc(Cc4ccc5ncccc5c4)n3n2)cc1 [Example 30, 6-(6-Phenyl-imidazo[1,2-b]pyridazin-3-ylmethyl)-quinoline] | 91
18 | FC(F)(F)CNc1ccc2ncc(Cc3ccc4ncccc4c3)n2n1 [Example 114, (3-Quinolin-6-ylmethyl-imidazo[1,2-b]pyridazin-6-yl)-(2,2,2-trifluoro-ethyl)-amine] | 56
19 | c1cn2cc(Cc3cnc4ccc(-c5cnn(C6CCNCC6)c5)nn34)ccc2n1 [Example 291, 3-Imidazo[1,2-a]pyridin-6-ylmethyl-6-(1-piperidin-4-yl-1H-pyrazol-4-yl)-imidazo[1,2-b]pyridazine] | 590
20 | c1ccc(CN2CCC(Nc3ccc4ncc(Cc5ccc6ncccc6c5)n4n3)C2)cc1 (stereo not drawn) [Example 117, (1-Benzyl-pyrrolidin-3-yl)-(3-quinolin-6-ylmethyl-imidazo[1,2-b]pyridazin-6-yl)-amine] | 630
21 | CC(c1ccc(O)cc1)c1cnc2ccc(-c3cnn(CCO)c3)nn12 (racemic) [Example 221, (rac)-4-(1-{6-[1-(2-Hydroxy-ethyl)-1H-pyrazol-4-yl]-imidazo[1,2-b]pyridazin-3-yl}-ethyl)-phenol] | 240
22 | Cn1cc(-c2ccc3ncc(Cc4ccc5ncc(C#N)n5c4)n3n2)cn1 [Example 302, 6-[6-(1-Methyl-1H-pyrazol-4-yl)-imidazo[1,2-b]pyridazin-3-ylmethyl]-imidazo[1,2-a]pyridine-3-carbonitrile] | 94
23 | Clc1ccc2ncc(Cc3ccc4nccn4c3)n2n1 [Example 74, 6-chloro-3-imidazo[1,2-a]pyridin-6-ylmethyl-imidazo[1,2-b]pyridazine] | 200
24 | Cn1cc(-c2ccc3ncc(C(C)(O)c4cc5cccnc5cc4F)n3n2)cn1 (racemic) [Example 174, (rac)-1-(7-Fluoro-quinolin-6-yl)-1-[6-(1-methyl-1H-pyrazol-4-yl)-imidazo[1,2-b]pyridazin-3-yl]-ethanol] | 120
25 | CCn1cc(-c2ccc3ncc(C(O)c4cc5cccnc5cc4F)n3n2)cn1 (racemic) [Example 249, (rac)-[6-(1-Ethyl-1H-pyrazol-4-yl)-imidazo[1,2-b]pyridazin-3-yl]-(7-fluoro-quinolin-6-yl)methanol] | 380
26 | FC(F)(c1ccc2ncccc2c1)c1cnc2ccc(-c3cnn(C4CCNCC4)c3)nn12 [Example 197, 6-{Difluoro-[6-(1-piperidin-4-yl-1H-pyrazol-4-yl)-imidazo[1,2-b]pyridazin-3-yl]-methyl}-quinoline] | 61
27 | CC1CCCCN1c1ccc2ncc(Cc3ccc4ncccc4c3)n2n1 (stereo not drawn) [Example 111, 6-[6-(2-Methyl-piperidin-1-yl)-imidazo[1,2-b]pyridazin-3-ylmethyl]-quinoline] | 340
28 | Clc1ccc(-c2ccc3ncc(Cc4ccc5ncccc5c4)n3n2)cc1 [Example 27, 6-[6-(4-Chloro-phenyl)-imidazo[1,2-b]pyridazin-3-ylmethyl]-quinoline] | 110
29 | OCCn1cc(-c2ccc3ncc(Cc4ccc5nccn5c4)n3n2)cn1 [Example 215, 2-[4-(3-Imidazo[1,2-a]pyridin-6-ylmethyl-imidazo[1,2-b]pyridazin-6-yl)-pyrazol-1-yl]-ethanol] | 130
30 | Cn1ncc2c(F)c(Cc3cnc4ccc(-c5cnn(CCO)c5)nn34)c(F)cc21 [Example 285, 2-{4-[3-(4,6-Difluoro-1-methyl-1H-indazol-5-ylmethyl)-imidazo[1,2-b]pyridazin-6-yl]-pyrazol-1-yl}-ethanol] | 11
